# In US11504381B1 (priority 2021, dated 2022):
# Tests used:
# recombinant MDM2 protein [1] = target: T1, recombinant MDM2 protein (Homo sapiens (Human), UniProt Q00987); details: competitive binding vs fluorescently labeled peptide probe, 10% DMSO, pH 7.2; read-out: Fluorescence Polarization Assay KI
# Experimental: The compounds binding to MDM2 were determined by a quantitative fluorescence polarization binding assay using a recombinant MDM2 protein and fluorescently labeled peptide probes using a BioTek Cytation 5 machine. Compounds were tested in 10% DMSO, 100 mM potassium phosphate pH 7.2, 100 ug/ml bovine γ-globulin, 0.02% (w/v) sodium azide and 0.01% (v/v) triton X-100. KI values of tested compounds were determined in a dose-dependent competitive binding experiment by fitting the sigmoidal dose-dependent FP increases as a function of […] concentrations using Graphpad Prism software.
# recombinant MDM2 protein [2] = target: T1, recombinant MDM2 protein; experiment: biochemical; format: binding
# Experimental: Qualitative evaluation of compound binding to MDM2 was determined using a fluorescence-based thermal shift assay with a Roche LC480 lightcycler. Each experiment was performed in ˜30 mins with ramping up of temperature to monitor thermal denaturation of MDM2. Compounds at 0.16 mM, 0.08 mM and 0.04 mM were added to recombinant MDM2 protein and SYPRO orange dye in 5% DMSO 50 mM Bis-Tris Propane pH 8.0 and 100 mM NaCl. Positive thermal shift was indicative of compound binding to the proteins of interest.
# T1 sequence (Q00987 whole entry): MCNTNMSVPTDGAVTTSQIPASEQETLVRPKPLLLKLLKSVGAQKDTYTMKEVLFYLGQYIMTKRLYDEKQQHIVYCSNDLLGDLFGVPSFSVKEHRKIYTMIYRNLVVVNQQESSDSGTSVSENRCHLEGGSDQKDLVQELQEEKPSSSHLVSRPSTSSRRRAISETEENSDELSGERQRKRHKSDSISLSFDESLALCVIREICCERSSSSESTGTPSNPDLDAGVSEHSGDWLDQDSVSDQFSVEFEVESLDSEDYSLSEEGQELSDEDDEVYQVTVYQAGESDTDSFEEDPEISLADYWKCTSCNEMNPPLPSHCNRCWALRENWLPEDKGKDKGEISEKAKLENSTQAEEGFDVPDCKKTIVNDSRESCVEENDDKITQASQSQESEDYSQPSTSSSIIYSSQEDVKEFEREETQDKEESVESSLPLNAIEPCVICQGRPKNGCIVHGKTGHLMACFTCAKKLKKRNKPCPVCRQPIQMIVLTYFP
compound,measurement,setting,value
"CC(=O)Nc1cc(C(F)(F)F)cnc1N1CCN(CC(=O)O)CC1c1ccc(Cl)cc1 (stereo not shown) [Compound 2, 2-(4-(3-acetamido-5-(trifluoromethyl)pyridin-2-yl)-3-(4-chlorophenyl)piperazin-1-yl)acetic acid]",Ki,recombinant MDM2 protein [1],118 µM
same,ΔTm at 40 µM,recombinant MDM2 protein [2]; read-out: Thermal Shift 0.04 mM,0 °C
same,ΔTm at 80 µM,recombinant MDM2 protein [2]; read-out: Thermal Shift 0.08 mM,0 °C
same,ΔTm at 160 µM,recombinant MDM2 protein [2]; read-out: Thermal Shift 0.16 mM,0.6 °C
